“Also recorded” adds a separate entry of the source. Peptide text beside a SMILES is read from it.
What was measured:
Type in all cases: in vivo, human
male runners [1] = assay: Serial subtraction test (modified Serial Sevens Test); conditions: between trials
Protocol: The testing protocol is depicted in FIG. 1. Data collection occurred on four separate occasions. Each session required participants to perform a 60-min run at 75% of their previously measured VO2max. Following this run, all participants performed a run at 90% of their VO2max until volitional exhaustion. All participants performed their first trial (DHY) without any rehydration. During this session the total weight lost during the trial was determined. The fluid loss that occurred during this session was then used to determine the participant's swear rate (L·hr^−1). To continue in the study, participant's sweat rate was or exceeded 1.3 L·hr^−1. During the next three trails participants were provided 250 ml of fluid every 15 minutes in equal amounts. During one of the trials participants consumed only a flavored sports drink (ELECT only), while during the other trials participants consumed the alanine-glutamine supplement (Sustamine™) mixed in the same flavored sports drink at either a low (LD: 300 mg per 500 ml) or high (HD: 1 g per 500 ml) dose.
A modified version of the original Serial Sevens Test was utilized to analyze cognitive function. […] The number of correct answers and the average time per correct answer was recorded.

male runners [2] = assay: Lower body reaction, 20-second Quick Board test; conditions: for QuickBoard Hit Δ, group mean: Post-Pre; for changes in lower body reaction (Quick Board): LD and HD, no significant differences between groups
Protocol: The testing protocol is depicted in FIG. 1. Data collection occurred on four separate occasions. Each session required participants to perform a 60-min run at 75% of their previously measured VO2max. Following this run, all participants performed a run at 90% of their VO2max until volitional exhaustion. All participants performed their first trial (DHY) without any rehydration. During this session the total weight lost during the trial was determined. The fluid loss that occurred during this session was then used to determine the participant's swear rate (L·hr^−1). To continue in the study, participant's sweat rate was or exceeded 1.3 L·hr^−1. During the next three trails participants were provided 250 ml of fluid every 15 minutes in equal amounts. During one of the trials participants consumed only a flavored sports drink (ELECT only), while during the other trials participants consumed the alanine-glutamine supplement (Sustamine™) mixed in the same flavored sports drink at either a low (LD: 300 mg per 500 ml) or high (HD: 1 g per 500 ml) dose. A Lower body reaction time was assessed by a 20-second reaction test on the Quick Board™ (The Quick Board, LLC, Memphis, Tenn.) reaction timer (QB). Participants stood on a board of five circles, in a 2×1×2 pattern. The participant straddled the middle circle and reacted to a visual stimulus located on a display box that depicted one of five potential lights that corresponded with the circles on the board. Upon activation of the light, the participant attempted to move the foot closest to the circle that corresponded to the visual stimulus. Upon a successful connection the next stimulus appeared. The total number of successful attempts for the 20-second test and the average time between the activation of the light and the response to the corresponding circle were recorded. Additionally, to make inferences on true effects of the different trials on reaction performance, an analysis based on the magnitude of differences, calculated from 90% confidence intervals, as previously described by Batterham and Hopkins (2005), was used in this study. Differences in Post-Pre performance (Δresponse) between trials were analyzed via a published spreadsheet (Hopkins 2007), with the smallest non-trivial change set at 20% of the grand standard deviation (Batterham and Hopkins 2005). All data are expressed as a mean effect±SD, with percent chances of a beneficial, trivial or negative outcome. Qualitative inferences, based on quantitative chances were assessed as: <1% almost certainly not, 1-5% very unlikely, 5-25% unlikely, 25-75% possibly, 75-95% likely, 95-99% very likely and >99% almost certainly (Hopkins 2002).

[3] = Blood measures during the 60-min run (plasma lactate, glucose, osmolality, potassium, sodium, glutamine); conditions: at 45-min; HD compared with LD
Protocol: During each experimental session baseline (BL) blood samples were obtained at preexercise. Additional blood samples were also obtained following 30 min, 45 min and 60 min during the exercise session. All blood samples were obtained using a 20-gauge Teflon cannula placed in a superficial forearm vein using a 3-way stopcock with a male luer lock adapter. The cannula was maintained patent using an isotonic saline solution. BL blood samples were drawn following a 15-min equilibration period prior to exercise. Blood samples were obtained at the same time of day during each session.
Blood samples were drawn into plain or EDTA treated tubes. Blood samples will be analyzed in triplicate for hematocrit via microcapillary technique and hemoglobin. […]
Plasma glucose and lactate concentrations were determined in duplicate with an automated analyzer (Analox GM7 enzymatic metabolite analyzer, Analox Instruments USA, Lunenburg, Mass.). Plasma glutamine was analyzed with the use of a spectrophotometer and a commercially available enzymatic kit (Abnova, Jhongli City, Taiwan) per manufacturer's instructions. Serum immunoreactivity values were determined using a BioTekEon spectrophotometer (BioTek, Winooski, Vt., USA). Plasma sodium and potassium concentrations were assessed via ion-selective electrodes (EasyElectrolyte, Medica, Bedford, Mass.). […]

## C[C@H](N)C(=O)N[C@@H](CCC(N)=O)C(=O)O [L-Alanyl-L-Glutamine] (H-Ala-Gln-OH)
Male runners [1]
  serial subtraction tests and time per successful answer: No significant differences
Male runners [2]; Dehydration vs High Dose
  QuickBoard Hit Δ, Interpretation: likely lower
  QuickBoard Hit Δ, Mean Difference: −2.6
  QuickBoard Hit Δ, Percent Negative: 90.99%
  QuickBoard Hit Δ, Percent Positive: 1.92%
  QuickBoard Hit Δ, Percent Trivial: 7.10%
Male runners [2]; Dehydration vs Low Dose
  QuickBoard Hit Δ, Interpretation: likely lower
  QuickBoard Hit Δ, Mean Difference: −2.2
  QuickBoard Hit Δ, Percent Negative: 88.90%
  QuickBoard Hit Δ, Percent Positive: 1.93%
  QuickBoard Hit Δ, Percent Trivial: 9.16%
Male runners [2]; Gatorade vs High Dose
  QuickBoard Hit Δ, Interpretation: Unclear
  QuickBoard Hit Δ, Mean Difference: −1.7
  QuickBoard Hit Δ, Percent Negative: 73.53%
  QuickBoard Hit Δ, Percent Positive: 9.72%
  QuickBoard Hit Δ, Percent Trivial: 16.75%
Male runners [2]; High Dose (1 g per 500 ml)
  QuickBoard Hit Δ, group mean: 1.17
Male runners [2]
  changes in lower body reaction (Quick Board): performance appeared to improve in LD and HD
Male runners [2]; listed as L-alanyl-L-glutamine
  changes in lower body reaction (Quick Board): Performance appeared to improve
Male runners [2]; Low Dose (300 mg per 500 ml)
  QuickBoard Hit Δ, group mean: 0.75
Male runners [2]; Low Dose vs Gatorade
  QuickBoard Hit Δ, Interpretation: Unclear
  QuickBoard Hit Δ, Mean Difference: 1.3
  QuickBoard Hit Δ, Percent Negative: 17.75%
  QuickBoard Hit Δ, Percent Positive: 63.09%
  QuickBoard Hit Δ, Percent Trivial: 19.15%
Male runners [2]; Low Dose vs High Dose
  QuickBoard Hit Δ, Interpretation: trivial; also recorded: Possibly
  QuickBoard Hit Δ, Mean Difference: 0.42
  QuickBoard Hit Δ, Percent Negative: 29.69%
  QuickBoard Hit Δ, Percent Positive: 0.19%
  QuickBoard Hit Δ, Percent Trivial: 70.12%
[3]
  plasma glutamine concentrations: significant difference

Source: US10369185B2, “Methods and compositions for enhancement of ability to concentrate” (KYOWA HAKKO BIO CO., LTD., priority 2014, dated 2019)
